In US9995734B2, “Human T cell line assay for evaluating the immunologic identity of glatiramer acetate preparations” (Mylan Inc., priority 2013, dated 2018):

Assays:
[1] = tested on: Donor 3 COP T-Cell Lines; test: ATP proliferation assay (CellTiter Glo), Donor 3 COP T-cell lines, incl. reactivity to non-canonical GA peptides; assay type: cell-based, human; settings: for Reactivity (proliferation), Mean: Day 54 of culture
[2] = tested on: Donor 4 COP T-Cell Lines; test: ATP proliferation assay (CellTiter Glo), Donor 4 COP T-cell lines, incl. reactivity to non-canonical GA peptides; assay type: cell-based, human; settings: for response to GMA in comparison to COP: 205-1F4, 10 μg/mL dose; for Mean, ATP proliferation assay: Cell Line 205-1F4; for Proliferation (luminescent ATP assay), Mean: T-cell line 205-1F4, autologous B-LCL; for Reactivity (proliferation), Mean: T-cell line 205-1H3, 0 μg/mL 4121.0

glatiramer acetate [GMA]
Reactivity (proliferation), Mean ([1]; T-cell line 165-E3C, 3 μg/mL antigen, No Antigen 2797): 17065 RLU | Mean, ATP proliferation assay ([1]; T-cell line 165-E3C, 3 μg/mL, Day 46, after 3 days): 35044 RLU | Reactivity (proliferation), Mean ([1]; T-cell line 165-E3C, 10 μg/mL antigen, No Antigen 2797): 37602 RLU | Mean, ATP proliferation assay ([1]; T-cell line 165-E3C, 10 μg/mL, Day 46, after 3 days): 68577 RLU | Reactivity (proliferation), Mean ([1]; T-cell line 165-E3C, 100 μg/mL antigen, No Antigen 2797): 23437 RLU | Mean, ATP proliferation assay ([1]; T-cell line 165-E3C, Day 32, 10 μg/mL): 3723 RLU | Reactivity (proliferation), Mean ([1]; T-cell line 165-F3C, 1 μg/mL antigen, No Antigen 3150): 9423 RLU | Proliferation (luminescent ATP assay), Mean ([1]; T-cell line 165-F3C, 1 μg/mL antigen, Day 77 of culture, 0 μg/mL 1563): 7277 | Mean, ATP proliferation assay ([1]; T-cell line 165-F3C, 1 μg/mL, Day 46, after 3 days): 45592 RLU | Reactivity (proliferation), Mean ([1]; T-cell line 165-F3C, 3 μg/mL antigen, No Antigen 3150): 37555 RLU | Proliferation (luminescent ATP assay), Mean ([1]; T-cell line 165-F3C, 3 μg/mL antigen, Day 77 of culture, 0 μg/mL 1563): 50400 | Mean, ATP proliferation assay ([1]; T-cell line 165-F3C, 3 μg/mL, Day 46, after 3 days): 101328 RLU | Reactivity (proliferation), Mean ([1]; T-cell line 165-F3C, 10 μg/mL antigen, No Antigen 3150): 44621 RLU | Proliferation (luminescent ATP assay), Mean ([1]; T-cell line 165-F3C, 10 μg/mL antigen, Day 77 of culture, 0 μg/mL 1563): 70563 | Mean, ATP proliferation assay ([1]; T-cell line 165-F3C, 10 μg/mL, Day 46, after 3 days): 84268 RLU | Reactivity (proliferation), Mean ([1]; T-cell line 165-F3C, 100 μg/mL antigen, No Antigen 3150): 12391 RLU | Mean, ATP proliferation assay ([1]; T-cell line 165-F3C, Day 32, 10 μg/mL): 1257 RLU | Reactivity (proliferation), Mean ([1]; T-cell line 165-F6C, 1 μg/mL antigen, No Antigen 2189): 15671 RLU | Mean, ATP proliferation assay ([1]; T-cell line 165-F6C, 1 μg/mL, Day 46, after 3 days): 18511 RLU | Proliferation (luminescent ATP assay), Mean ([1]; T-cell line 165-F6C, 1.25 μg/mL antigen, Day 76 of culture, No Antigen value 517): 629 | Proliferation (luminescent ATP assay), Mean ([1]; T-cell line 165-F6C, 2.5 μg/mL antigen, Day 76 of culture, No Antigen value 517): 3,197 | Reactivity (proliferation), Mean ([1]; T-cell line 165-F6C, 3 μg/mL antigen, No Antigen 2189): 40274 RLU | Mean, ATP proliferation assay ([1]; T-cell line 165-F6C, 3 μg/mL, Day 46, after 3 days): 43634 RLU | Proliferation (luminescent ATP assay), Mean ([1]; T-cell line 165-F6C, 5 μg/mL antigen, Day 76 of culture, No Antigen value 517): 11,867 | Reactivity (proliferation), Mean ([1]; T-cell line 165-F6C, 10 μg/mL antigen, No Antigen 2189): 38921 RLU | Proliferation (luminescent ATP assay), Mean ([1]; T-cell line 165-F6C, 10 μg/mL antigen, Day 76 of culture, No Antigen value 517): 20,141 | Mean, ATP proliferation assay ([1]; T-cell line 165-F6C, 10 μg/mL, Day 46, after 3 days): 34321 RLU | Reactivity (proliferation), Mean ([1]; T-cell line 165-F6C, 100 μg/mL antigen, No Antigen 2189): 3690 RLU | Mean, ATP proliferation assay ([1]; T-cell line 165-F6C, Day 32, 10 μg/mL): 1489 RLU | response in proliferation assay ([1]; all seven Donor 3 COP T-cell lines tested, Day 54): responded well | reactivity in confirmatory ATP proliferation assay ([1]; six Donor 3 COP lines, Day 32, 10 μg/mL (Table 23)): showed reactivity | response to GMA in comparison to COP ([2]; Day 50 (Table 27)): 102.7% | response to GMA in comparison to COP ([2]; Day 58 (Table 28)): 98.5% | response to GMA in comparison to COP ([2]; Day 71): 101.3% | Mean, ATP proliferation assay ([2]; Day 50, 1 μg/mL): 17341 | Mean, ATP proliferation assay ([2]; Day 50, 3 μg/mL): 195335 | Mean, ATP proliferation assay ([2]; Day 50, 10 μg/mL): 218954 | Mean, ATP proliferation assay ([2]; Day 58, 3 μg/mL): 29921 | Mean, ATP proliferation assay ([2]; Day 58, 10 μg/mL): 30998 | Mean, ATP proliferation assay ([2]; Day 58, 30 μg/mL): 33915 | Mean, ATP proliferation assay ([2]; Day 58, 100 μg/mL): 32698 | Proliferation (luminescent ATP assay), Mean ([2]; Day 71, 1 μg/mL antigen): 17341 | Proliferation (luminescent ATP assay), Mean ([2]; Day 71, 3 μg/mL antigen): 195335 | Proliferation (luminescent ATP assay), Mean ([2]; Day 71, 10 μg/mL antigen): 218954 | Proliferation (luminescent ATP assay), Mean ([2]; Day 80, 1 μg/mL antigen): 7,477 | Proliferation (luminescent ATP assay), Mean ([2]; Day 80, 2 μg/mL antigen): 64,999 | Proliferation (luminescent ATP assay), Mean ([2]; Day 80, 5 μg/mL antigen): 83,107 | Proliferation (luminescent ATP assay), Mean ([2]; Day 80, 10 μg/mL antigen): 67,482 | Reactivity (proliferation), Mean ([2]; 1 μg/mL antigen): 37654.3 | Reactivity (proliferation), Mean ([2]; 3 μg/mL antigen): 55284.3 | Reactivity (proliferation), Mean ([2]; 10 μg/mL antigen): 60841.7
